Usually inhibition stands for the drop in the measured response relative to a control, in per cent.

Test [1] deals with PAF specific receptor binding site on rabbit platelet plasma membranes (Oryctolagus cuniculus, UniProt G1TEI7). The test is described as follows: Inhibition of 3H-PAF binding to rabbit platelet plasma membrane. Conditions: for inhibition at 0.03 µM: .03 μM; for inhibition at 0.1 µM: .1 μM; for inhibition at 0.3 µM: .3 μM. Here is the method:
A. In Vitro Assay: In vitro, they inhibit PAF-induced functions in both the cellular and tissue levels by disturbing the PAF binding to its specific receptor site. The ability of a compound of formula (I) to inhibit the PAF binding to its specific receptor binding site on rabbit platelet plasma membranes was measured by an assay recently developed by us.
The inhibition of H^3 -PAF binding to the rabbit platelet plasma membrane by a PAF-antagonist of Formula (I) was determined by a method employing isotopic labeling and filtration techniques. Generally, a series of Tris-buffered solutions of the selected antagonist at predetermined concentrations were prepared. Each of these solutions contains 1 pmole of ^3 H-PAF, a known amount of the test antagonist, and a sufficient amount of the pH 7.5 Tris-buffer solution (10 mM Tris, 0.25% bovine serum albumin, and 150 mM NaCl per ml water) to make the final volume of 1 ml. After adding into a set of test tubes each with 100 μg of the platelet plasma membrane suspension (S. B. Hwang, et al., Biochemistry, 1983) and one of the Tris-buffer solutions described above, the resulting mixture in each test tube was incubated at 0° C. for about one hour or until the reaction was complete. Two control samples, one of which (C1)contains all the ingredients described above except the antagonist and the other (C2) contains C1 plus a 1000-fold excess of unlabeled PAF, were also prepared and incubated simultaneously with the test samples. After the incubation was completed, the contents of each test tube were filtered under vacuo through a Whatman GF/C fiberglass filter and the residue washed rapidly several times with a total of 20 ml cold (0°-5° C.) Tris-buffer solution. Each washed residue was then suspended in 10 ml scintillation solution (Aquasol 2, New England Nuclear, Connecticut) and the radioactivity was counted in a Packard Tri-Carb 460CD Liguid Scintillation System. Defining the counts from a test sample as "Total binding with antagonist"; the counts from the control sample C1, as "Total binding C1 "; and the counts from the control sample C2 as "nonspecific binding C2 ", the percent inhibition of each test antagonist can be determined by the following equation: [formula]

Test [2] relates to soluble immune complex induced effects. The test is described as follows: Method B: oral activity in inhibiting soluble immune complex induced effects in rats. Type of test: in vivo. The conditions noted are these: rat, 50 mg/kg. As for the experimental part: Method B: Protocol for Assay of Oral Activity of PAF antagonists in inhibiting soluble immune complex induced effects including decreased arterial blood flow, increased vascular permeability and increased degranulation in rats.
Animals: Female, wistar rats, 190-22-g
2. Weigh the rats the morning after fasting
3. Suspend a test compound in 0.5% methylcellulose with 12 ounce hand homogenizer to yield fine suspension. Administer orally each of the rats with 2 ml of suspension such that the rat received a predetermined amount of the compound varying between 2 and 50 mg compound per kg bodyweight of the rat.
4. Soluble immune complexes (I.C.) were prepared by mixing 2.4 mg human serum albumin (HSA) with 51 mg of the Igby fraction from rabbit anti-HSA antiserum in a final volume of 3.4 ml and incubating at 37° C. for 1 hour. This ratio of HSA to antibody was previously determined to be in slight antigen excess of equivalence and to result in soluble I.C. Following 37° C. incubation, the I.C. was centrifuged at 10,000 xg, 5 minute and the resulting superinstant containing the soluble I.C. stored on ice.
5. Two and one-half hours after dosing, anesthetize the rat with sodium Nembutal (i.P.)
6. Two and three-quarters hours after dosing, cannulate surgically the left femoral vein and artery of the rat. Take a blood sample from the cannulated femoral artery before the I.C. infusion and 1.5, 3, 5, 8, 11, 15, 20, 25 and 30 minutes after the I.C. infusion. Measure the following three parameter for each blood sample:
(§1) (a) the arterial blood flow rate: determined by measuring the time to fill a pre-calibrated 14 μl capillary tube;
(b) the vascular permeability: measured by calculating the increased hematocit which results from loss of plasma from the circulation to extra-vascular spaces.
(c) the circulatory degranulation: determined by assaying the increased plasma level of N-acetylglucosaminidase, a marker lysopomal enzyme.
(§2) 8. Calculate the percent inhibition by the formula: [formula]

The test system of test [3] is PAF-induced symptoms (increased vascular permeability, increased degranulation). The test is described as follows: Oral activity in inhibiting PAF-induced symptoms in rats. Format: in vivo. The conditions noted are these: rat.
Source text: B. In vivo Assay: Protocol for Assay of Oral Activity of PAF-antagonists in inhibiting PAF-induced symptoms including decreased arterial blood flow, increased vascular permeability and increased degranulation in rats
Animals: Female, Wiston rats, 190-220 g
2. Weigh the rats the morning after fasting.
3. Suspend a test compound in 0.5% methylcellulose with 12 ounce hand homogenizer or a sonicator if necessary to yield a fine suspension. […]
4. One hour after dosing, anesthetize the rat with sodium Nembutal (i.p.).
5. One and a quarter hours after dosing, cannulate surgically the left femoral vein and artery of the rat.
6. One and a half hours after dosing, infuse through cannulated vein 0.5 nannomoles (n moles) per 200 g body weight of the rat. Take blood samples from the cannulated femoral artery at 1.5, 3, 5, 8, 11, 15, 20 25 and 30 minute intervals. After the beginning of the PAF infusion as well as just before the PAF infusion, measure the following three parameters for each blood sample:
as §1
(b) the vascular permeability: measured by calculating the increased hematocrit which results from loss of plasma from the circulation to extra-vascular spaces.
(c) the circulatory degranulation: determined by assaying the increased plasma level of N-acetylglucosaminidase, a marker lysosomal enzyme.
7. Determine the percent change in each parameter of a blood sample at each post-PAF interval including the 30 minute interval, relative to the pre-PAF blood values.
as §2

Chain of PAF specific receptor binding site on rabbit platelet plasma membranes (G1TEI7 1-342): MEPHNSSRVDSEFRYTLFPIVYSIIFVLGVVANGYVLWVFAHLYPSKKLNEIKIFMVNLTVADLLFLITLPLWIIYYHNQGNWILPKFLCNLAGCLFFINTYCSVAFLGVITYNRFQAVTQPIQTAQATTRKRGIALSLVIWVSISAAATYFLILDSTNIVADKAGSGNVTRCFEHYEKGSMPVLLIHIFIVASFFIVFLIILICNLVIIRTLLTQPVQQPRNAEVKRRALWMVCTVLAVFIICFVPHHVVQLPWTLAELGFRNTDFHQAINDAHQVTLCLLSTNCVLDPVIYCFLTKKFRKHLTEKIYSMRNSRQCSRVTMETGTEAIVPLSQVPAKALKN

In test [1], `COc1ccc([C@H]2S[C@@H](c3ccc(OC)c(OC)c3)[C@H](C)[C@H]2C)cc1OC` (relative stereo) had an inhibition at 1 µM of 53% and an inhibition at 5 µM of 82%.

Take `COc1ccc([C@H]2S[C@H](c3ccc(OC)c(OC)c3)[C@H](C)[C@H]2C)cc1OC` (relative stereo): in test [1], 1 µM produced 82% inhibition, the inhibition at 0.03 µM was determined as 30%, the inhibition at 0.1 µM was 68% and the inhibition at 0.3 µM amounted to 43%.

Take `COc1ccc([C@H]2CC[C@H](c3ccc(OC)c(OC)c3)S2)cc1OC` (relative stereo) [H H 3,4-dimethoxyphenyl same as Ar trans, trans-2,5-bis-(3,4-dimethoxyphenyl)tetrahydrothiophene]: in test [1], the inhibition at 1 µM stood at 100%, 0.03 µM produced 31% inhibition, testing at 0.1 µM gave an inhibition of 43% and testing at 0.3 µM gave an inhibition of 83%.

Turning to `COc1cc([C@H]2CC[C@H](c3cc(OC)c(OC)c(OC)c3)S2)cc(OC)c1OC` (relative stereo) [trans-2,5-bis (3,4,5-trimethoxyphenyl) tetrahydrothiophene], in test [2], the “% inhibition of decreased arterial blood flow” value came out at 40%, the “% inhibition of increased degranulation” value is reported as 40% and the “% inhibition of increased vascular permeability” value came to 73%. In test [3] (1 mg/kg), the “% inhibition A (increased vascular permeability)” value is 20% and the “% inhibition B (increased degranulation)” value amounted to 49%. Further, in test [3] (5 mg/kg), the “% inhibition A (increased vascular permeability)” value amounted to 58% and the “% inhibition B (increased degranulation)” value was 60%. In test [3] (20 mg/kg), the “% inhibition A (increased vascular permeability)” value was found to be 85% and the “% inhibition B (increased degranulation)” value amounted to 83%. In test [3] (40 mg/kg), the “% inhibition A (increased vascular permeability)” value is listed as 81% and the “% inhibition B (increased degranulation)” value was 81%. In addition, in test [1], the “PAF-antagonist activity (in words)” value is listed as “most active PAF-antagonists”, the inhibition at 1 µM came to 100%, the inhibition at 0.03 µM worked out at 69% and the inhibition at 0.1 µM stood at 95%. Besides, the inhibition at 0.3 µM in test [1] was 100%.

With `COc1cc([C@H]2CC[C@H](c3cc(OC)c(OC)c(OC)c3)S2)cnc1OC` (relative stereo) [trans-2-(3,4,5-trimethoxyphenyl)-5-(5,6-dimethoxy-3-pyridyl)tetrahydrothiophene], in test [1], the “PAF-antagonist activity (in words)” value is recorded as “most active PAF-antagonists”, the inhibition at 1 µM is 80% and the inhibition at 5 µM is 96%.

With `COc1ccc([C@@H]2CC[C@H](c3ccc(OC)c(OC)c3)S2)cc1OC` [H H 3,4-dimethoxyphenyl same as Ar cis, cis-2,5-bis-(3,4-dimethoxyphenyl)tetrahydrothiophene], in test [3] (20 mg/kg), the “% inhibition A (increased vascular permeability)” value is listed as 41% and the “% inhibition B (increased degranulation)” value turned out to be 35%. In test [1], this compound showed an inhibition at 1 µM of 62%, an inhibition at 0.1 µM of 25% and an inhibition at 0.3 µM of 41%.

For the origin of these results see patent publication US4757084A, “2,5-diaryl tetrahydrothiophenes and analogs thereof as PAF-antagonists” (Merck & Co., Inc., priority 1985, dated 1988).
